Our source for the EC50 and Emax values is patent US10239887B2, “Positive allosteric modulators of the muscarinic acetylcholine receptor M4” (Vanderbilt University, priority 2016, dated 2019).

The structures appear in SMILES notation. Counter-ions that a name gives are not always drawn. Like-named read-outs stand apart in the source and are kept apart here.

The experiment has as its target T1, human mAChR M4 (Homo sapiens, UniProt P08173).
T1 sequence (P08173 1-479): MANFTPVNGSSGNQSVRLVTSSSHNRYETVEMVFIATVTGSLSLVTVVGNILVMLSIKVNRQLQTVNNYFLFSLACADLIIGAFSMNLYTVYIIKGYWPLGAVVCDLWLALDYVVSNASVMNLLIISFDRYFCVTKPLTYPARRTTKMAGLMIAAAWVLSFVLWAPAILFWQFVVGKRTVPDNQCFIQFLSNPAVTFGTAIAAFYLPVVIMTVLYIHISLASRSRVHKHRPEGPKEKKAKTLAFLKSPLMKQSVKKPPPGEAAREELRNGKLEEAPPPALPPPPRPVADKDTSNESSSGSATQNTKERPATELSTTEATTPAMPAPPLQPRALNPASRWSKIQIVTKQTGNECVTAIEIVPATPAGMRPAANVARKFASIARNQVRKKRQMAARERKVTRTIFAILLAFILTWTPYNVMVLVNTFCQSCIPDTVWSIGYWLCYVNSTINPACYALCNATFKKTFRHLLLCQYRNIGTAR
Put plainly: mAChR M4 cell-based functional assay (calcium flux), human M4. Conditions: for EC50: calcium flux.

[1] abbreviates: Human M4 EC50 (nM), Table 10, PAM activity with EC20 acetylcholine.
The mark [2] stands for this setting: Table 10, % ACh maximum at 30 μM.
Where [3] appears, read: Human M4, % ACh maximum at 30 μM.
[4] abbreviates: Human M4 EC50, CHO-K1 hM4-Gqi5 cells, increase in EC20 acetylcholine response.
Setting [5] is: Human M4 EC50 (nM), Table 11, PAM activity with EC20 acetylcholine.
Where [6] appears, read: Table 11, % ACh maximum at 30 μM.

By EC50 is commonly meant the concentration at which the effect is half-maximal. As a reminder, the Emax is the size of the effect at its maximum, as opposed to the concentration needed. In the case of `Cc1nnc2sc3c(NC4CN(c5cnc(C6CC6)cn5)C4)ncnc3c2c1C` [Compound 86, N-[1-(5-cyclopropylpyrazin-2-yl)azetidin-3-yl]-3,4-dimethyl-pyrimido [4′,5′:4,5]thieno[2,3-c] pyridazin-8-amine], the EC50 under setting [1] stood at 60.4 nM. In addition, the maximum response (Emax) under setting [2] came to 69%.
Consider `Cc1nnc2sc3c(N4CC5(CNC5)C4)ncnc3c2c1C` [Compound 105, 8-(2,6-diazaspiro[3.3]heptan-2-yl)-3,4-dimethyl-pyrimido [4′,5′:4,5]thieno[2,3-c] pyridazine], for which the maximum response (Emax) turned out to be 55.6%. Under setting [1], the EC50 stood at 627 nM.
Consider `Cc1nnc2sc3c(NCc4ccc(C(=O)N5CC(F)(F)C5)cc4)ncnc3c2c1C` [Compound 156, (3,3-difluoroazetidin-1-yl)-[4-[[(3,4-dimethlpyrimido [4′,5′:4,5]thieno[2,3-c]pyridazin-8-yl)amino]methyl]phenyl]methanone], for which the half-maximal effective concentration (EC50) under setting [1] is 590 nM. For the same molecule, under setting [2], the Emax was determined as 84.9%.
Turning to `Cc1nnc2sc3c(N4CC(Oc5ccccc5F)C4)ncnc3c2c1C` [Compound 31, 8-(3-(2-fluorophenoxy)azetidin-1-yl)-3,4-dimethylpyrimido [4′,5′:4,5]thieno[2,3-c] pyridazine], under setting [3], the Emax amounted to 60%. Under setting [4], the half-maximal effective concentration (EC50) turned out to be 2160 nM.
Turning to `Cc1cc(C)c2c(n1)oc1c(NC3CN(c4ncc(F)cn4)C3)ncnc12` [Compound 59, N-[1-(5-fluoropyrimidin-2-yl)azetidin-3-yl]-7,9-dimethyl-pyrido[3′,2′:4,5]furo[3,2-d]pyrimidin-4-amine hydrochloride], the Emax under setting [3] stood at 34.9%.
As for `Cc1nnc2sc3c(NCc4ccc(F)c(C(=O)NC5CC5)c4)ncnc3c2c1C` [Compound 176, N-cyclopropyl-5-[[(3,4-dimethylpyrimido [4′,5′:4,5]thieno[2,3-c]pyridazin-8-yl)amino]methyl]-2-fluoro-benzamide], the EC50 under setting [1] came out at 511 nM. Moreover, the Emax under setting [2] worked out at 105%.
Consider `Cc1nnc2sc3c(N4CCC(COc5ccnc(Cl)c5)C4)ncnc3c2c1C` (stereo not drawn) [Compound 347, 8-[3-[(2-chloro-4-pyridyl)oxymethyl]pyrrolidin-1-yl]-3,4-dimethyl-pyrimido[4′,5′:4,5] thieno[2,3-c]pyridazine dihydrochloride], for which the EC50 under setting [5] is 362 nM. In addition, the Emax under setting [6] came out at 48.5%.
In the case of `Cc1nnc2oc3c(NCc4ccc(C(C)(C)O)nc4)ncnc3c2c1C` [Compound 74, 2-[5-[[(3,4-dimethylpyrimido [4′,5′:4,5]furo[2,3-c]pyridazin-8-yl)amino]methyl]-2-pyridyl]propan-2-ol], the maximum response (Emax) under setting [3] amounted to 59.5%. Besides, the EC50 under setting [4] was determined as 9160 nM.
Regarding `Cc1c(Cl)cnc2sc3c(NCc4ccc5c(c4)CC(C)(C)O5)ncnc3c12` [Compound 233, 8-chloro-N-[(2,2-dimethyl-3H-benzofuran-5-yl)methyl]-9-methyl-pyrido [3′,2′:4,5]thieno[3,2-d] pyrimidin-4-amine], the EC50 under setting [1] was found to be 5510 nM. In addition, the maximum response (Emax) under setting [2] was found to be 40.6%.
On the same counts, the results for `Cc1nnc2sc3c(NCc4ccc(S(C)(=O)=O)cc4)ncnc3c2c1C` [Compound 93, 3,4-dimethyl-N-[(4-methylsulfonylphenyl)methyl] pyrimido[4′,5′:4,5]thieno [2,3-c]pyridazin-8-amine] are 192 nM and 61.3%.
The like results for `Cc1cc(C)c2c(n1)oc1c(N3CC4(COC4)C3)ncnc12` [Compound 296, 7,9-dimethyl-4-(2-oxa-6-azaspiro[3.3]heptan-6-yl)pyrido[3′,2′:4,5]furo[3,2-d]pyrimidine] were, in that order, 3370 nM and 37.7%.
The like results for `Cc1nc2sc3c(N4CC(c5ccncc5)C4)ncnc3c2c(C)c1Cl` [Compound 262, 8-chloro-7,9-dimethyl-4-[3-(4-pyridyl)azetidin-1-yl]pyrido[3′,2′:4,5] thieno[3,2-d]pyrimidine dihydrochloride] were, in that order, 1520 nM and 83.8%.
As for `Cc1nnc2sc3c(NCc4ccc(-c5ccccn5)cc4)ncnc3c2c1C` [Compound 109, 3,4-dimethyl-N-[[4-(2-pyridyl)phenyl]methyl] pyrimido[4′,5′:4,5]thieno [2,3-c]pyridazin-8-amine hydrochloride], the EC50 under setting [1] stood at 748 nM. Besides, under setting [2], the Emax amounted to 79.2%.
Regarding `Cc1nnc2sc3c(NCc4ccc(C(C)(C)CO)cc4F)ncnc3c2c1C` [Compound 368, 2-[4-[[(3,4-dimethylpyrimido[4′,5′:4,5]thieno[2,3-c]pyridazin-8-yl)amino]methyl]-3-fluoro-phenyl]-2-methyl-propan-1-ol], the EC50 under setting [5] is 766 nM. In addition, the maximum response (Emax) under setting [6] was 98%.
For the molecule `Cc1nnc2sc3c(N4CC[C@H](Oc5ccnc(Cl)c5)C4)ncnc3c2c1C` [Compound 329, 8-[(3S)-3-[(2-chloro-4-pyridyl)oxy]pyrrolidin-1-yl]-3,4-dimethyl-pyrimido [4′,5′:4,5]thieno[2,3-c] pyridazine], the half-maximal effective concentration (EC50) under setting [5] came to 107 nM. Moreover, the Emax under setting [6] is 76.6%.
In the case of `Cc1cc(C)c2c(n1)oc1c(NCc3cccc(C(C)(C)O)c3)ncnc12` [Compound 57, 2-[3-[[(7,9-dimethylpyrido[3′,2′:4,5]furod[3,2-]pyrimidin-4-yl)amino]methyl]phenyl] propan-2-ol], the Emax under setting [3] is 23.7%. Further, the EC50 under setting [4] was 4270 nM.
For the molecule `Cc1ncc(CN2CC3(CC(Nc4ncnc5c4sc4nnc(C)c(C)c45)C3)C2)cn1` [Compound 166, 3,4-dimethyl-N-[2-[(2-methylpyrimidin-5-yl)methyl]-2-azaspiro [3.3]heptan-6-yl]pyrimido [4′,5′:4,5]thieno[2,3-c] pyridazin-8-amine], the concentration for a half-maximal effect (EC50) under setting [1] turned out to be 1210 nM. Besides, the maximal response (Emax) under setting [2] stood at 34.7%.
Regarding `Cc1nnc2sc3c(NCc4ccc(C(=O)NC5CC5)c(Cl)c4)ncnc3c2c1C` [Compound 313, 2-chloro-N-cyclopropyl-4-[[(3,4-dimethylpyrimido[4′,5′:4,5]thieno[2,3-c]pyridazin-8-yl)amino]methyl]benzamide], under setting [5], the EC50 worked out at 166 nM. Further, the Emax under setting [6] was 75.2%.
Regarding `Cc1nnc2sc3c(N4CC(F)(F)C4)ncnc3c2c1C` [Compound 21, 8-(3,3-difluoroazetidin-1-yl)-3,4-dimethylpyrimido [4′,5′:4,5]thieno[2,3-c] pyridazine], the Emax under setting [3] came out at 64%. Under setting [4], the 50% effective concentration (EC50) was found to be 426 nM.
On the same counts, the results for `Cc1nnc2sc3c(N4CC(Oc5ccc(F)cc5)C4)ncnc3c2c1C` [Compound 30, 8-(3-(4-fluorophenoxy)azetidin-1-yl)-3,4-dimethylpyrimido [4′,5′:4,5]thieno[2,3-c] pyridazine] are 65% and 2610 nM.
Turning to `COc1ccc(CNc2ncnc3c2sc2nnc(Cl)c(C)c23)cc1F` [Compound 212, 3-chloro-N-[(3-fluoro-4-methoxy-phenyl)methyl]-4-methyl-pyrimido[4′,5′:4,5] thieno[2,3-c]pyridazin-8-amine], under setting [1], the half-maximal effective concentration (EC50) worked out at 405 nM. In addition, the Emax under setting [2] turned out to be 80%.
On the same counts, the results for `Cc1nnc2sc3c(NCc4cccc(C5(O)CCC5)c4)ncnc3c2c1C` [Compound 102, 1-[3-[[(3,4-dimethylpyrimido [4′,5′:4,5]thieno[2,3-c]pyridazin-8-yl)amino]methyl]phenyl] cyclobutanol] are 135 nM and 53.3%.
With `COc1ccc(CNc2ncnc3c2sc2nnc(C)c(C)c23)cc1F` [Compound 78, N-(3-fluoro-4-methoxybenzyl)-3,4-dimethylpyrimido [4′,5′:4,5]thieno[2,3-c] pyridazin-8-amine], under setting [2], the Emax turned out to be 71.6%.
As for `Cc1nnc2sc3c(N(C)Cc4ccc(C(C)(C)O)cc4)ncnc3c2c1C` [Compound 137, 2-[4-[[(3,4-dimethylpyrimido [4′,5′:4,5]thieno[2,3-c]pyridazin-8-yl)-methyl-amino]methyl]phenyl] propan-2-ol], the EC50 under setting [1] came to 222 nM. The Emax under setting [2] amounted to 80.6%.
`COc1ccc(C2CC2Nc2ncnc3c2sc2ncc(Cl)c(C)c23)cc1` (stereo not drawn) [Compound 236, 8-chloro-N-[2-(4-methoxyphenyl)cyclopropyl]-9-methyl-pyrido [3′,2′:4,5]thieno[3,2-d] pyrimidin-4-amine dihydrochloride]: the concentration for a half-maximal effect (EC50) under setting [1] turned out to be 5660 nM. Also, under setting [2], the maximal effect (Emax) is 61.2%.
As to `Cc1cc(C)c(CNc2ncnc3c2sc2nnc(C)c(C)c23)cn1` [Compound 147, N-[(4,6-dimethyl-3-pyridyl)methyl]-3,4-dimethyl-pyrimido [4′,5′:4,5]thieno[2,3-c] pyridazin-8-amine hydrochloride], the maximal response (Emax) was 85.8%. Besides, the 50% effective concentration (EC50) under setting [1] was 429 nM.
For `Cc1cnn(C)c1-c1ccc(CNc2ncnc3c2sc2nnc(C)c(C)c23)cc1` [Compound 342, N-[[4-(2,4-dimethylpyrazol-3-yl)phenyl]methyl]-3,4-dimethyl-pyrimido[4′,5′:4,5] thieno[2,3-c]pyridazin-8-amine], under setting [5], the EC50 came to 1100 nM. Also, the maximal response (Emax) under setting [6] came to 81.5%.
With `COc1c(F)cc(CNc2ncnc3c2sc2nnc(C)c(C)c23)cc1F` [Compound 136, N-[(3,5-difluoro-4-methoxy-phenyl)methyl]-3,4-dimethyl-pyrimido [4′,5′:4,5]thieno[2,3-c] pyridazin-8-amine], the concentration giving a half-maximal response (EC50) under setting [1] came to 388 nM. Besides, the Emax under setting [2] was 96.8%.
